IC50 data for 24 molecules are collected here from US10787444B2, “Compounds for the modulation of myc activity” (Syros Pharmaceuticals, Inc., priority 2015, dated 2020).

One experiment addresses T1, c-Myc/Max/Ebox DNA (Homo sapiens, UniProt P01106).
T1 construct: his6 (cleaved yes)
Nature of the experiment: c-Myc/Max/Ebox DNA AlphaScreen Assay. The note with it: calculated IC50 class. Type of experiment: binding. The protocol:
Compounds of the invention were assayed for c-Myc/Max/EBox activity as described in the following protocol. Human his6-c-Myc and his6-Max were used with biotinylated DNA containing a single Ebox sequence (biotin[…]) purchased from MWG Operon. Free c-Myc was generated from his6-c-Myc through thrombin cleavage of the his6 tag. For 384-well plate assays, 10 μL of a 2× solution of free c-Myc (20 nM final), Ni^2+ coated Acceptor Beads (25 μg/ml final), and biotinylated Ebox oligo (10 nM final) were added to 384-well plates with a Biotek EL406 liquid handler. 50 nL of compounds from stock plates were added by pin transfer using a Janus Workstation (PerkinElmer), allowing the compounds to interact with c-Myc prior to c-Myc binding with Max. In the current assay, DMSO was not allowed to exceed 2% v/v of the assay. 10 μl of 2× master mix containing streptavidin-coated donor beads (25 μg/ml final) and his6-Max (5 nM) were added. AlphaScreen measurements were performed on an Envision plate reader (PerkinElmer) utilizing the manufacturer's protocol.
Both master mixes were made in room temperature assay buffer (50 mM HEPES, 150 mM NaCl, 0.2% w/v BSA, 0.02% w/v Tween20, 40 μg/ml glycogen, 500 μM DTT, pH 8.0, wherein both DTT and glycogen were added fresh). Alpha beads were added to respective master solutions. All subsequent steps were performed in low light conditions. Solution 1:2× solution of components with final concentrations of c-Myc Ni-coated Acceptor Beads (25 μg/ml), and biotinylated Ebox oligo (10 nM). Solution 2:2× solution of streptavidin-coated donor beads (25 μg/ml final) and his6-Max 10 μL. […] 50 nL of compounds from stock plates were added by pin transfer using a Janus Workstation. Solution 2 (10 μl) was added with the liquid handler. Plates were sealed with foil to block light exposure and prevent evaporation. Plates were very briefly centrifuged followed by 2 hour incubation. […] Excitation was at 680 nm for donor bead release of singlet oxygen and emission was read with a bandpass filter from 520-620 nm.

Experiment [1] deals with human small lung cancer cell line H2171. Nature of the experiment: Cell Viability Assay (ATPlite). Type of experiment: cell-based. The note with it: H2171 cells, three days, ATPlite, calculated IC50 class, read-out: H2171 Activity. The protocol: Compounds of the invention were assayed for cell viability using the human small lung cancer cell line H2171 as described in the following protocol. Cells were counted and adjusted to 20,000 cells/mL. Using a Biotek EL406, 50 μL of cells in media were distributed into 384 well white plates from Thermo. Immediately after plating, compound in DMSO was distributed to plates. Compounds were added to plates using a 50 nL 384 well pin transfer manifold on a Janus workstation. Stocks were arrayed in 10 point dose response in DMSO stock in 384 well Greiner compound plates. After the addition of compounds, plates were incubated for three days in a 37° C. incubator. Cell viability was read out using ATPlite from Perkin Elmer. Lyophilized powder was resuspended in lysis buffer and diluted 1:2 with deionized water. 25 μL of this solution was added to each well using the Biotek liquid handler. Plates were incubated for 15 minutes at room temperature before signal was read on an Envision Plate Reader. The data from this assay are summarized in Tables 2 and 3 below (H2171 activity).

[2] abbreviates: Homo sapiens, NCI-H2171, 72 h, Table 3, compounds of FIG. 2.
[3] abbreviates: Homo sapiens, NCI-H2171, 72 h, Table 2, compounds of FIG. 1.

Counter-ions that a name gives are not always drawn. Like-named read-outs stand apart in the source and are kept apart here.

T1 sequence (P01106 whole entry): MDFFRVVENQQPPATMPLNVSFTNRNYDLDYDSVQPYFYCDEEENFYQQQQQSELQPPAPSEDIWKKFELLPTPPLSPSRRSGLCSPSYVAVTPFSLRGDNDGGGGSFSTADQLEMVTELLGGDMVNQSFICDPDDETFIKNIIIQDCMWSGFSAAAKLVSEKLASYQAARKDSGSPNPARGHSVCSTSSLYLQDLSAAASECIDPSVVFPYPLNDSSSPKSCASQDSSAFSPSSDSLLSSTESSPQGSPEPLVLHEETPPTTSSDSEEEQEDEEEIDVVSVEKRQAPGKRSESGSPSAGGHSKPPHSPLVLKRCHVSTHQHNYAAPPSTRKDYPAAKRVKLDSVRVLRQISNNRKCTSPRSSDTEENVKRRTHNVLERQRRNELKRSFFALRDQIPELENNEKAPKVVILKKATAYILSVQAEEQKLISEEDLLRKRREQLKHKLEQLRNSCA

Consider `CC(=O)Nc1sc2c(c1-c1nc3ccccc3s1)CCNC2` [Compound 202, N-(3-(benzo[d]thiazol-2-yl)-4,5,6,7-tetrahydrothieno[2,3-c]pyridin-2-yl)acetamide], for which the IC50 on c-Myc/Max/Ebox DNA (Table 3, compounds of FIG. 2) was 1000 to 10000 nM; in experiment [1] (setting [2]) it was less than 300 nM.
Turning to `C=Cc1ccc2sc(-c3c(NC(=O)CCNC(C)C)sc4c3CCNC4)nc2c1` [Compound 321, 3-(Isopropylamino)-N-(3-(5-vinylbenzo[d]thiazol-2-yl)-4,5,6,7-tetrahydrothieno[2,3-c]pyridin-2-yl)propanamide], the IC50 at c-Myc/Max/Ebox DNA (Table 2, compounds of FIG. 1) is 300 to 1000 nM; in experiment [1] (setting [3]), less than 300 nM.
In the same order, the values of `COCCNCCC(=O)Nc1sc2c(c1-c1nc3cc(-c4cccnc4)ccc3s1)CC(C)NC2C` (stereo not drawn) [Compound 533, N-(5,7-Dimethyl-3-(5-(pyridin-3-yl)benzo[d]thiazol-2-yl)-4,5,6,7-tetrahydrothieno[2,3-c]pyridin-2-yl)-3-((2-methoxyethyl)amino)propanamide] are 1000 to 10000 nM and 300 to 1000 nM.
Take `CCN(CC)c1ccc(-c2ccc3sc(-c4c(NC(=O)CCNCCOC)sc5c4CCNC5)nc3c2)cc1` [compound 365]: the IC50 at c-Myc/Max/Ebox DNA (Table 2, compounds of FIG. 1) is less than 300 nM; in experiment [1] (setting [3]), less than 300 nM.
Turning to `CCC(C)NCCC(=O)Nc1sc2c(c1-c1nc3cc4c(cc3s1)OCO4)CCN(C(C)C)C2` (stereo not drawn) [Compound 563, N-(3-([1,3]Dioxolo[4′,5′:4,5]benzo[1,2-d]thiazol-6-yl)-6-isopropyl-4,5,6,7-tetrahydrothieno[2,3-c]pyridin-2-yl)-3-(sec-butylamino)propanamide], the IC50 is less than 300 nM at c-Myc/Max/Ebox DNA (Table 2, compounds of FIG. 1) and less than 300 nM in experiment [1] (setting [3]).
`CCC(C)NCCC(=O)Nc1sc2c(c1-c1nc3ccccc3s1)CC[N+](C)(C(C)C)C2` (stereo not drawn) [Compound 191, 3-(benzo[d]thiazol-2-yl)-2-(3-(sec-butylamino)propanamido)-6-isopropyl-6-methyl-4,5,6,7-tetrahydrothieno[2,3-c]pyridin-6-ium]: the IC50 is less than 300 nM at c-Myc/Max/Ebox DNA (Table 2, compounds of FIG. 1) and 1000 to 10000 nM in experiment [1] (setting [3]).
In the same order, the values of `O=C(CCNCCc1cccnc1)Nc1sc2c(c1-c1nc3ccccc3s1)CCNC2` [Compound 136, N-(3-(benzo[d]thiazol-2-yl)-4,5,6,7-tetrahydrothieno[2,3-c]pyridin-2-yl)-3-((2-(pyridin-3-yl)ethyl)amino) propanamide] are 1000 to 10000 nM and 300 to 1000 nM.
On to `CC[C@H](C)NCCC(=O)Nc1sc2c(c1-c1nc3cc(C(F)(F)F)ccc3s1)CC(C)NC2C` (single isomer, unassigned) [Compound 587], for which the IC50 on c-Myc/Max/Ebox DNA (Table 2, compounds of FIG. 1) was more than 10000 nM; in experiment [1] (Table 2, compounds of FIG. 1) it was 300 to 1000 nM.
With `CCOC(=O)CCOCCOCCOCCOCCOCCOCCNCCC(=O)Nc1sc2c(c1-c1nc3ccccc3s1)CCNC2` [Compound 622, Ethyl 1-((3-(benzo[d]thiazol-2-yl)-4,5,6,7-tetrahydrothieno[2,3-c]pyridin-2-yl)amino)-1-oxo-7,10,13,16,19,22-hexaoxa-4-azapentacosan-25-oate], the IC50 is less than 300 nM on c-Myc/Max/Ebox DNA (Table 2, compounds of FIG. 1) and less than 300 nM in experiment [1] (setting [3]).
On to `COCCNCCC(=O)Nc1sc2c(c1-c1nc3cc(-c4ccncc4)ccc3s1)CC(C)NC2` (single isomer, unassigned) [Compound 549, 3-((2-Methoxyethyl)amino)-N-(5-methyl-3-(5-(pyridin-4-yl)benzo[d]thiazol-2-yl)-4,5,6,7-tetrahydrothieno[2,3-c]pyridin-2-yl)propanamide], for which the IC50 is less than 300 nM at c-Myc/Max/Ebox DNA (Table 2, compounds of FIG. 1) and less than 300 nM in experiment [1] (setting [3]).
Turning to `CC[C@@H](C)NCCC(=O)Nc1sc2c(c1-c1nc3ccccc3s1)CCN(C(C)C)C2` [Compound 140, (R)—N-(3-(benzo[d]thiazol-2-yl)-6-isopropyl-4,5,6,7-tetrahydrothieno[2,3-c]pyridin-2-yl)-3-(sec-butylamino)propanamide], the IC50 was less than 300 nM on c-Myc/Max/Ebox DNA (Table 2, compounds of FIG. 1) and less than 300 nM in experiment [1] (setting [3]).
Turning to `CC[C@H](C)NCCC(=O)Nc1sc2c(c1-c1nc3cc(-c4ccncc4)ccc3s1)CCN(C1CCC1)C2` [Compound 595, (S)-3-(sec-butylamino)-N-(6-cyclobutyl-3-(5-(pyridin-4-yl)benzo[d]thiazol-2-yl)-4,5,6,7-tetrahydrothieno[2,3-c]pyridin-2-yl)propanamide], the IC50 at c-Myc/Max/Ebox DNA (Table 2, compounds of FIG. 1) was less than 300 nM; in experiment [1] (setting [3]) it was 300 to 1000 nM.
In the same order, the values of `CC(C)NCCC(=O)Nc1sc2c(c1-c1nc3cc(C(=O)O)ccc3s1)CCNC2` [Compound 320, 2-(2-(3-(Isopropylamino)propanamido)-4,5,6,7-tetrahydrothieno[2,3-c]pyridin-3-yl)benzo[d]thiazole-5-carboxylic acid] are 300 to 1000 nM and less than 300 nM.
The corresponding values for `COCCNCCC(=O)Nc1sc2c(c1-c1nc3cc(-c4cncc(N)c4)ccc3s1)CCNC2` [compound 443] are less than 300 nM and less than 300 nM.
In the same order, the values of `CC(C)NCCC(=O)Nc1sc2c(c1-c1nc3cc(-n4ccnc4)ccc3s1)CCNC2` [Compound 178, N-(3-(5-(1H-imidazol-1-yl)benzo[d]thiazol-2-yl)-4,5,6,7-tetrahydrothieno[2,3-c]pyridin-2-yl)-3-(isopropylamino)propanamide dihydrochloride] are less than 300 nM and less than 300 nM.
Regarding `COCCNCCC(=O)Nc1sc2c(c1-c1nc3ccc(-c4cc[nH]n4)cc3s1)CCNC2` [compound 361], the IC50 on c-Myc/Max/Ebox DNA (Table 2, compounds of FIG. 1) is less than 300 nM; in experiment [1] (setting [3]), less than 300 nM.
In the case of `COCCNCCC(=O)Nc1sc2c(c1-c1nc3cc(-c4cncc(OC)c4)ccc3s1)CCNC2` [compound 349], the IC50 is less than 300 nM on c-Myc/Max/Ebox DNA (Table 2, compounds of FIG. 1) and less than 300 nM in experiment [1] (setting [3]).
Take `CC(=O)Nc1sc2c(c1-c1nc3ccccc3s1)CCC(N)C2` (stereo not drawn) [Compound 221, N-(6-amino-3-(benzo[d]thiazol-2-yl)-4,5,6,7-tetrahydrobenzo[b]thiophen-2-yl)acetamide]: the IC50 on c-Myc/Max/Ebox DNA (Table 3, compounds of FIG. 2) is more than 10000 nM; in experiment [1] (setting [2]), more than 10000 nM.
For the molecule `COCCNCCC(=O)Nc1sc2c(c1-c1nc3ccc(-c4ccc(O)nc4)cc3s1)CCNC2` [compound 374], the IC50 on c-Myc/Max/Ebox DNA (Table 2, compounds of FIG. 1) is less than 300 nM; in experiment [1] (setting [3]), less than 300 nM.
Take `CC[C@@H](C)NCCC(=O)Nc1sc2c(c1-c1nc3cc(C(F)(F)F)ccc3s1)CCN(C(C)C)C2` [Compound 574, (R)-3-(sec-butylamino)-N-(6-isopropyl-3-(5-(trifluoromethyl)benzo[d]thiazol-2-yl)-4,5,6,7-tetrahydrothieno[2,3-c]pyridin-2-yl)propanamide]: the IC50 at c-Myc/Max/Ebox DNA (Table 2, compounds of FIG. 1) is less than 300 nM; in experiment [1] (setting [3]), less than 300 nM.
Take `CN(C)CCC(=O)Nc1sc2c(c1-c1nc3ccccc3s1)CCNC2` [Compound 130, N-(3-(benzo[d]thiazol-2-yl)-4,5,6,7-tetrahydrothieno[2,3-c]pyridin-2-yl)-3-(dimethylamino)propanamide]: the IC50 on c-Myc/Max/Ebox DNA (Table 2, compounds of FIG. 1) is less than 300 nM; in experiment [1] (setting [3]), less than 300 nM.
For `COCCNCCC(=O)Nc1sc2c(c1-c1nc3cc(F)ccc3s1)CCNC2` [Compound 189, N-(3-(5-fluorobenzo[d]thiazol-2-yl)-4,5,6,7-tetrahydrothieno[2,3-c]pyridin-2-yl)-3-((2-methoxyethyl)amino)propanamide], the IC50 at c-Myc/Max/Ebox DNA (Table 2, compounds of FIG. 1) is less than 300 nM; in experiment [1] (setting [3]), less than 300 nM.
Consider `CC[C@@H](C)NCCC(=O)Nc1sc2c(c1-c1nc3cc(C(F)(F)F)ccc3s1)CCNC2` [Compound 179, (R)-3-(sec-butylamino)-N-(3-(5-(trifluoromethyl)benzo[d]thiazol-2-yl)-4,5,6,7-tetrahydrothieno[2,3-c]pyridin-2-yl)propanamide], for which the IC50 was less than 300 nM on c-Myc/Max/Ebox DNA (Table 2, compounds of FIG. 1) and less than 300 nM in experiment [1] (setting [3]).
Regarding `CCc1cccc2nc(-c3c(NC(=O)CCNCCOC)sc4c3CCNC4)sc12` [compound 599], the IC50 on c-Myc/Max/Ebox DNA (Table 2, compounds of FIG. 1) was less than 300 nM; in experiment [1] (setting [3]) it was less than 300 nM.
